Assays:
[1] = test system: Tlp11-LBD (residues 32–332 of Tlp11); test: Thermal shift assay (TSA) of Tlp11-LBD; format: binding, C. jejuni ATCC 33560
Experimental: TSA measurements were performed using a quantitative Real-Time PCR System (LightCycler® 480; Roche, United States), to monitor the Tm of the LBD proteins. The compounds listed in Supplementary Table S2 were used as ligand candidates for the high-throughput screening. Each 25 μL mixture for the standard assay contained 20 μM protein, 1–2 mM compound in Buffer C, and SYPRO™ Orange dye (Life Technologies, United States), at 5× concentration. Samples were heated from 26°C to 85°C, with a ramp rate of 1.2°C min^−1, to denature the protein. Protein unfolding curves were recorded by detecting the changes in fluorescence. The Tm values were calculated using first-derivative values (dF/dT) from the raw data.
Fluorescence-based TSA, which has been widely used to discover direct-binding molecules of proteins with high efficiency ([Fernández et al., 2018]), was used to identify the ligand specificity of the C. jejuni chemoreceptor Tlp11. The Tlp11-LBD protein (residues 32–332 of Tlp11) from the strain C. jejuni ATCC 33560 was expressed and purified from E. coli. Hydrophobic reactive dyes were added to the purified protein sample, and the protein was heated to record the change in fluorescence intensity as the temperature increased during the denaturation process of the protein (see Materials and Methods). The melting temperature (Tm) of the target protein was obtained and represented as the midpoint of the protein unfolding transition. Most ligands stabilize the protein during binding, leading to an increase in Tm. Using TSA, we screened a compound library composed of 131 molecules (Supplementary Table S2) that commonly act as microbial carbon and nitrogen sources or metabolites in the human GI tract. Among the compounds in the library, methyl pyruvate elicited the most significant increase in Tm. In the absence of the ligand, the Tm of Tlp11-LBD was 38.3°C, while in the presence of 1 mM methyl pyruvate, the Tm increased by 1.1°C compared to buffer (Figure 1A).

Tlp11-LBD N268A = test: MST of Tlp11-LBD mutant N268A; format: binding, C. jejuni ATCC 33560; settings: max ligand 2.5 mM
Experimental: (§1) The His-tag dye (MO-L018 RED-tris-NTA, NanoTemper, Germany) was adjusted to a final concentration of 25 nM and used to label the purified protein with a His-tag. The compound was diluted to a series of concentrations in phosphate-buffered saline ([Duan et al., 2023]) with 0.05% Tween 20 (PBS-T) buffer and mixed in a ratio of 1:1 with protein. The mixtures were loaded into capillaries (Monolith™ Series capillaries, NanoTemper) by means of capillary action. Thermophoresis was measured using a Monolith™ NT.115 (NanoTemper) instrument, with 40% excitation and 40% MST power configuration. The time-traces of changes in fluorescence, which reflected the thermophoretic movement of labeled protein affected by different concentrations of compound were recorded, and the dose–response curves were fitted with the ‘temperature jump and thermophoresis’ mode. Data analysis was performed using MO. Affinity Analysis version 2.3 (NanoTemper) and Prism version 8.0.2 (GraphPad Software, United States).
(§2) In order to confirm the contribution of L264, N268, I276, Y291, V318, and T320 to the binding to methyl pyruvate, we generated Tlp11-LBD proteins with an alanine point mutation at individual residues, to obtain the mutant proteins L264A, N268A, I276A, Y291A, V318A, and T320A, and then analyzed the binding affinities of methyl pyruvate to these mutants using MST. […]

Tlp11-LBD I276A = test: MST of Tlp11-LBD mutant I276A; format: binding, C. jejuni ATCC 33560; settings: max ligand 2.5 mM
Experimental: as §1, §2

Tlp11-LBD Y291A = test: MST of Tlp11-LBD mutant Y291A; format: binding, C. jejuni ATCC 33560; settings: max ligand 2.5 mM
Experimental: as §1, §2

[2] = test system: C. jejuni NCTC 11168ΩTlp11 cells; format: cell-based, Campylobacter jejuni; settings: 11168ΩTlp11 cells; microfluidic device, 30 min
C. jejuni ATCC 33560 = test: Growth curves in Minimal Essential Medium; format: cell-based, Campylobacter jejuni; settings: Minimal Essential Medium with fetal bovine serum, shaking; methyl pyruvate at concentrations above 1 mM
Experimental: The C. jejuni ATCC 33560, C. jejuni WT NCTC 11168 and 11168ΩTlp11 cells were grown on a MH agar plate overnight, at 37°C, under microaerobic conditions. The colonies were suspended in PBS ([Duan et al., 2023]), pH 7.2, inoculated into Minimal Essential Medium broth (Life Technologies) containing 10% fetal bovine serum to an initial OD600 of 0.01, and grown at 37°C, 100 rpm, under microaerobic conditions. When required, Minimal Essential Medium was supplemented with different concentrations of methyl pyruvate or pyruvate (both from Macklin, China).

[3] = test system: full-length PhoQ or an empty vector; test: GFP reporter assay, control cells; format: cell-based, E. coli MG1655/ΔPhoQ; settings: 40 min
Experimental: The reporter plasmid pUA66-PmgtLA-GFP and the plasmid encoding the hybrid kinase were together transformed into E. coli MG1655/ΔPhoQ strain. E. coli cells containing the reporter and Tlp11-PhoQ chimera were incubated in Medium A, at 37°C, with shaking (200 rpm), until an OD600 of 0.4 was attained, following which different concentrations of methyl pyruvate were added to the medium and the cells were incubated for 40 min. The fluorescence intensity of the cells was monitored using a plate reader (Varioskan™ LUX, Life Technologies) equipped with a 488 nm laser and a 528/12 bandpass filter. The acquired data were analyzed using Prism 8.0.2.
To construct the signal input module, we fused the Tlp11-LBD with the PhoQ cytoplasmic region, to design the Tlp11-PhoQ hybrid kinases (Supplementary Figure S6), Tlp11[1-337]-PhoQ[200-486] (Tlp337PhoQ200), Tlp11[1-339]-PhoQ[200-486] (Tlp339PhoQ200), Tlp11[1-339]-PhoQ[201-486] (Tlp339PhoQ201), Tlp11[1-340]-PhoQ[202-486] (Tlp340PhoQ202), Tlp11[1-340]-PhoQ[200-486] (Tlp340PhoQ200), Tlp11[1-341]-PhoQ[202-486] (Tlp341PhoQ202), Tlp11[1-342]-PhoQ[[…]] (Tlp342PhoQ202), Tlp11[1-343]-PhoQ[202-486] (Tlp343PhoQ202), which connected Tlp11 and PhoQ in TM2 (Supplementary Figure S7C). The activity of each chimera in sensing methyl pyruvate was determined by measuring the fluorescence intensity of GFP in the E. coli MG1655/ΔPhoQ strain.

COC(=O)C(C)=O [methyl pyruvate, Methyl pyruvate]
Tm increase of Tlp11-LBD compared to buffer (ΔTm) ([1]; 1 mM compound, 20 μM protein): 1.1 °C | ΔTm of Tlp11-LBD ([1]; 3 mM compound): 1.3 °C | ΔTm of Tlp11-LBD ([1]; 10 mM compound): 2.8 °C | Kd (binding curve fit) (Tlp11-LBD N268A): unable to obtain fitted Kd values | Kd (binding curve fit) (Tlp11-LBD I276A): unable to obtain fitted Kd values | Kd (binding curve fit) (Tlp11-LBD Y291A): unable to obtain fitted Kd values | chemotactic response [2]: robust attractant response | effect on growth of C. jejuni ATCC 33560 (C. jejuni ATCC 33560): significantly promoted the growth | response (GFP fluorescence intensity) of control cells [3]: almost no response

Source: paper PMC11111895, “Identification of a dCache-type chemoreceptor in Campylobacter jejuni that specifically mediates chemotaxis towards methyl pyruvate” (Frontiers in Microbiology, 2024)
